These results are taken from patent US20240408064A1, “RAS INHIBITORS, COMPOSITIONS AND METHODS OF USE THEREOF” (GENETOLEAD INC., priority 2021, published 2024).

Assay [1] addresses T1, HRas^G12V (Homo sapiens (Human), UniProt P01112, G12V). Briefly: 19F DLB (ligand-observed 19F NMR) score. Format: binding. The arrangement: scale not given here. The procedure:
(§1) All NMR experiments were collected using 3 mm NMR tubes on a 600 MHz Bruker Avance III spectrometer equipped with a QCI helium cryoprobe and a SampleJet sample changer. The buffer used for NMR experiments was 25 mM sodium phosphate pH 7.4, 150 mM NaCl, 5 mM MgCl2, 1 mM TCEP-d16, 10% D2O. Data were processed using Bruker TopSpin.
(§2) Since the fragment library was curated using phosphate buffer, 25 mM sodium phosphate pH 7.4, 150 mM NaCl, 5 mM MgCl2, 1 mM TCEP-d16, 10% D2O Fresh TCEP was used for experiments. Screening was performed using ^1H-decoupled 1D ^19F experiment Bruker experiment (zgfhigqn.2) with 64 scans and a relaxation delay of 5 seconds. 50 μM HRas^G12V and 240 μM of each fragment in pools (mixtures) were used.
Hit confirmation was performed using the same ^19F experiment as the screen. Ligand-observed 1D ^1H, protein-observed 1D ^1H, ^1H T2-CPMG as well as Saturation Transfer Difference (STD) experiments were also run on the same samples. Ligand-observed 1D ^1H was run using the standard Bruker sequence with excitation sculpting (zgesgp) with a relaxation delay of 10 seconds and 16 scans per spectrum. Protein-observed 1D ^1H was performed using the same sequence with a relaxation delay of 1 second and 256 scans in order to increase the signal-to-noise of the protein resonances, while keeping the experimental time relatively short. The ^1H T2-CPMG experiment employed a modified version of the Bruker 1D ^1H zgesgp experiment with the addition of a CPMG pulse train after the first 90° excitation pulse. Total duration for each spin echo was fixed at 1 ms (τ=500 μs), while the number of echoes in the pulse train was varied according to the total time (T). The number of scans for each spectrum was 4 and eight delay times were run on each sample, ranging from 1 ms to 800 ms. […]

The target in assay [2] is T1, HRas^G12V. Kind of assay: 19F T2-CPMG NMR score. It counts as binding. The procedure: as §1, §2
Hit confirmation was performed using the same ^19F experiment as the screen. Ligand-observed 1D ^1H, protein-observed 1D ^1H, ^1H T2-CPMG as well as Saturation Transfer Difference (STD) experiments were also run on the same samples. Ligand-observed 1D ^1H was run using the standard Bruker sequence with excitation sculpting (zgesgp) with a relaxation delay of 10 seconds and 16 scans per spectrum. Protein-observed 1D ^1H was performed using the same sequence with a relaxation delay of 1 second and 256 scans in order to increase the signal-to-noise of the protein resonances, while keeping the experimental time relatively short. The ^1H T2-CPMG experiment employed a modified version of the Bruker 1D ^1H zgesgp experiment with the addition of a CPMG pulse train after the first 90° excitation pulse. Total duration for each spin echo was fixed at 1 ms (τ=500 μs), while the number of echoes in the pulse train was varied according to the total time (T). The number of scans for each spectrum was 4 and eight delay times were run on each sample, ranging from 1 ms to 800 ms.
Because of its power to probe the intrinsically weak interactions (Kd) between targets and low-molecular weight fragments, NMR fragment-based lead discovery (FBLD) is a very useful biophysical method in early stage drug discovery, especially for challenging target proteins; including those with shallow binding pockets. Since FBLD screens are performed using low-molecular weight compounds (fragments) with lower structural complexity, the same chemical space can be covered using a smaller number of drug-like fragments versus use of large libraries of higher-molecular weight lead-like compounds as in high throughput screening (HTS) campaigns. Therefore, FBLD has a much higher hit rate than HTS using only several hundred to several thousand compounds in comparison with approximately 1 million compounds for HTS. Also, the small size of the compounds screened in FBLD means a better chance to fully match the interactions with small or transient pockets within the target protein, where these less tractable pockets cannot be accessed with standard classical HTS methods. […] We expect this methodology to be more advantageous than classical HTS methods for expediting the time from hit to lead (H2L) and allows for rapid access to high quality leads with lower attrition rates in subsequent lead optimization (LO) campaigns toward pre-clinical candidate selection. FBLD screening by NMR involves a “consensus binding” approach where several distinct NMR experiments (DLB, STD, CPMG) are applied along with a free-state aggregation detection method (T2-CPMG) to rank the compounds for their affinity to the receptor (HRAS in this case) whilst simultaneously monitoring the solution behavior and critical quality attributes of each compound. The latter helps to eliminate artifact binders which are highly problematic. We performed a fluorine screen involving 461 compounds that were derived from a highly curated fragment library. Moreover, two-dimensional ^15N HSQC NMR was also used to validate ligand-binding sites on the target protein. […]

T1 sequence (P01112 1-166 G12V): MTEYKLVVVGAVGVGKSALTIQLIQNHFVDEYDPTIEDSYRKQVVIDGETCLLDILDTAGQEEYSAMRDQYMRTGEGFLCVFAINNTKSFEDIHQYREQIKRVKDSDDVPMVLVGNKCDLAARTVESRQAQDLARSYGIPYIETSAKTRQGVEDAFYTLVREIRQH

For `O=C(Cc1c[nH]c2cc(F)ccc12)N1C[C@H]2CC[C@@H](C1)O2` [Compound 10122], the “19F DLB Score” value at HRas^G12V [1] was found to be 1.68. The “19F T2-CPMG Score” value at HRas^G12V [2] was 9.62.
With `CC1CN(C)CCC1NC(=O)Cc1c[nH]c2cc(F)ccc12` (stereo not drawn) [Compound 10099, N-(1,3-dimethylpiperidin-4-yl)-2-(6-fluoro-1H-indol-3-yl)acetamide], the “19F DLB Score” value at HRas^G12V [1] was determined as 1.4. Moreover, on HRas^G12V [2], the “19F T2-CPMG Score” value came out at 11.85.
Turning to `O=C1CCCN(C(=O)Cc2c[nH]c3cc(F)ccc23)C1` [Compound 10109], the “19F DLB Score” value at HRas^G12V [1] came to 3.45. For the same molecule, the “19F T2-CPMG Score” value at HRas^G12V [2] amounted to 15.4.
For the molecule `O=C(O)C1CCN(C(=O)Cc2c[nH]c3cc(F)ccc23)CC1` [Compound 10129], the “19F DLB Score” value on HRas^G12V [1] is recorded as 1.27. On HRas^G12V [2], the “19F T2-CPMG Score” value was determined as 3.92.
For `CC(C)COC1CCN(C(=O)Cc2c[nH]c3cc(F)ccc23)CC1` [Compound 10111, 2-(6-fluoro-1H-indol-3-yl)-1-(4-isobutoxypiperidin-1-yl) ethan-1-one], in that order: 2.23 and 12.96.
Take `O=C(c1cccc(F)c1)N1CCC(c2c[nH]c3cc(F)ccc23)C1` (stereo not drawn) [Compound 11022]: the “19F DLB Score” value on HRas^G12V [1] worked out at 3.43. For the same molecule, at HRas^G12V [2], the “19F T2-CPMG Score” value came out at 5.71.
The matching figures for `O=C(Cc1c[nH]c2cc(F)ccc12)N1CCCC(O)C1` (stereo not drawn) [Compound 10120]: 2.34 and 13.94.
The matching figures for `O=C(Cc1c[nH]c2cc(F)ccc12)Nc1ncccn1` [Compound 10078, 2-(6-fluoro-1H-indol-3-yl)-N-(pyrimidin-2-yl) acetamide]: 2.07 and 11.04.
With `CC(=O)Nc1cccc(C(=O)N2CCC(c3c[nH]c4cc(F)ccc34)CC2)c1` [Compound 11020], the “19F DLB Score” value at HRas^G12V [1] is reported as 2.23. The “19F T2-CPMG Score” value on HRas^G12V [2] amounted to 15.24.
`CC(=O)C1CN(C(=O)Cc2c[nH]c3cc(F)ccc23)C1` [Compound 10138]: the “19F DLB Score” value on HRas^G12V [1] was determined as 1.98. In addition, at HRas^G12V [2], the “19F T2-CPMG Score” value stood at 14.25.
For `CCOC(=O)[C@H]1CCCCN1C(=O)Cc1c[nH]c2cc(F)ccc12` [Compound 10128], in that order: 2.85 and 13.67.
For `COC[C@H]1CN(C(=O)Cc2c[nH]c3cc(F)ccc23)CCO1` [Compound 10154, (R)-2-(6-fluoro-1H-indol-3-yl)-1-(2-(methoxymethyl)morpholino)ethan-1-one], in that order: 1.62 and 8.16.
The matching figures for `O=C(Cc1c[nH]c2cc(F)ccc12)Nc1ccc2c(c1)OCO2` [Compound 10059]: 3.22 and 18.99.
`CC(=O)N[C@@H]1CCN(C(=O)Cc2c[nH]c3cc(F)ccc23)C1` [Compound 10091]: at HRas^G12V [1], the “19F DLB Score” value came to 1.93. Also, the “19F T2-CPMG Score” value on HRas^G12V [2] is 7.83.
Take `O=C(Cc1c[nH]c2cc(F)ccc12)N1CC2(COC2)C1` [Compound 10069]: the “19F DLB Score” value on HRas^G12V [1] stood at 2.54. Besides, at HRas^G12V [2], the “19F T2-CPMG Score” value came to 21.31.
The matching figures for `O=C(C1CCC(O)CC1)N1CCC(c2c[nH]c3cc(F)ccc23)C1` (stereo not drawn) [Compound 11019]: 2.2 and 12.9.
For `CC(C)N1CCN(C(=O)Cc2c[nH]c3cc(F)ccc23)CC1` [Compound 10068], in that order: 2.43 and 10.72.
`O=C(C1CCC(O)CC1)N1CCC(c2c[nH]c3cc(F)ccc23)CC1` (stereo not drawn) [Compound 11027]: the “19F DLB Score” value on HRas^G12V [1] is 2.48. Besides, the “19F T2-CPMG Score” value at HRas^G12V [2] is recorded as 13.23.
On to `O=C(Cc1c[nH]c2cc(F)ccc12)N1CCO[C@@H](CO)C1` [Compound 10147, (R)-2-(6-fluoro-1H-indol-3-yl)-1-(2-(hydroxymethyl)morpholino) ethan-1-one], for which the “19F DLB Score” value on HRas^G12V [1] stood at 2.3. Further, the “19F T2-CPMG Score” value on HRas^G12V [2] worked out at 19.87.
For `CC(c1ccncc1)N(C)C(=O)Cc1c[nH]c2cc(F)ccc12` (stereo not drawn) [Compound 10100, 2-(6-fluoro-1H-indol-3-yl)-N-methyl-N-(1-(pyridin-4-yl)ethyl)acetamide], in that order: 1.73 and 9.66.
The matching figures for `CCC(C(=O)N1CC(C)C1)c1c[nH]c2cc(F)ccc12` (stereo not drawn) [Compound 11005]: 3.19 and 16.59.
Regarding `O=C(CN1CCC1)c1c[nH]c2cc(F)ccc12` [Compound 10085, 2-(azetidin-1-yl)-1-(6-fluoro-1H-indol-3-yl) ethan-1-one], the “19F DLB Score” value at HRas^G12V [1] turned out to be 2.43. Moreover, at HRas^G12V [2], the “19F T2-CPMG Score” value is 21.45.
For `COCC1(O)CN(C(=O)Cc2c[nH]c3cc(F)ccc23)C1` [Compound 10089, 2-(6-fluoro-1H-indol-3-yl)-1-(3-hydroxy-3-(methoxymethyl)azetidin-1-yl)ethan-1-one], in that order: 1.89 and 9.84.
Take `CCOC(=O)[C@@H]1CCCN(C(=O)Cc2c[nH]c3cc(F)ccc23)C1` [Compound 10161]: the “19F DLB Score” value at HRas^G12V [1] is on record as 2.07. For the same molecule, at HRas^G12V [2], the “19F T2-CPMG Score” value was 7.87.
The matching figures for `CC(C)C(=O)C1CN(C(=O)Cc2c[nH]c3cc(F)ccc23)C1` [Compound 10116]: 1.88 and 13.95.
With `CC(=O)N1CCC(C(=O)N2CCC(c3c[nH]c4cc(F)ccc34)C2)CC1` (stereo not drawn) [Compound 11024], the “19F DLB Score” value at HRas^G12V [1] was 1.89. In addition, the “19F T2-CPMG Score” value on HRas^G12V [2] was 9.57.
Turning to `O=C(NCCc1c[nH]c2cc(F)ccc12)c1ccc(F)cc1` [Compound 10039], the “19F DLB Score” value on HRas^G12V [1] was 0.96. For the same molecule, the “19F T2-CPMG Score” value on HRas^G12V [2] was 20.33.
For `CN1CCN(C(=O)Cc2c[nH]c3cc(F)ccc23)CC1=O` [Compound 10146], in that order: 1.56 and 9.75.
The matching figures for `O=C(NCCc1c[nH]c2cc(F)ccc12)[C@H]1CCCO1` [Compound 10013]: 2.09 and 12.62.
For the molecule `Fc1ccc2c(CNc3ccccc3)c[nH]c2c1` [Compound 10052, N-((6-fluoro-1H-indol-3-yl)methyl) aniline], at HRas^G12V [1], the “19F DLB Score” value is given as 4.75. Also, the “19F T2-CPMG Score” value on HRas^G12V [2] turned out to be 25.51.
Turning to `COC(=O)C1CCN1C(=O)Cc1c[nH]c2cc(F)ccc12` (stereo not drawn) [Compound 10088, Methyl 1-(2-(6-fluoro-1H-indol-3-yl)acetyl)azetidine-2-carboxylate], the “19F DLB Score” value at HRas^G12V [1] is given as 2.24. Besides, the “19F T2-CPMG Score” value at HRas^G12V [2] came to 11.14.
The matching figures for `CC(O)C1CN(C(=O)Cc2c[nH]c3cc(F)ccc23)C1` (stereo not drawn) [Compound 10131, 2-(6-fluoro-1H-indol-3-yl)-1-(3-(1-hydroxyethyl)azetidin-1-yl)ethan-1-one]: 2.17 and 20.77.
For `CN1CCN(CCNC(=O)Cc2c[nH]c3cc(F)ccc23)CC1` [Compound 10020], in that order: 1.62 and 14.34.
